Measured values: patent US20030158120A1, “Combination product comprising melagatran and a factor xa inhibitor” (AstrZeneca AB, priority 2000, published 2003)

Tests used:
human plasma = assay: Prothrombin time clotting assay; assay type: biochemical
Method: Human blood from healthy volunteers, both men and women, was collected in 50 mL conical plastic tubes containing 5 mL of 0.13 mol/L of buffered tri-sodium citrate. The blood was immediately chilled on ice and centrifuged at 2000×g for 20 minutes.
100 μL of human plasma was pre-warmed to 37° C. for 180 seconds before coagulation was initiated by the addition of 200 μL pre-warmed assay reagent (Thromboplastin-S, ISI 1.1, Biopool Umea, Sweden). The prothrombin time (PT) was determined on a mechanical coagulometer, coupled to a CR-A calculator, CR 10 printer and a PR60 heat block (KC 10A Amelung, Germany). Each clotting test was performed in duplicate.
In order to determine the relative potency of each inhibitor and a 50:50 mixture thereof, the concentration required to double the prothrombin time (IC50) was determined as follows: The ratio of prothrombin time in control plasma (PT0) to the prothrombin time in the presence of different inhibitor concentrations (PTinhibitor) were plotted against the inhibitor concentration (log transformed) and fitted to sigmoidal dose-response curves from which IC50 values were calculated according to the equation:
where y=(PTO)/(PT) with a range from 1 to 0; a=maximal range i.e. 1, when PTmela is equal to PT0; s=the slope of the dose-response curve, x=log concentration of inhibitor, IC50=the concentration of melagatran that doubles the prothrombin time. The calculations were processed on a PC using the software program GraFit® Erithacus Version 3.0 (Robin Leatherbarrow, Imperial Collage of Science, Technology & Medicine, London).

O=C(c1ccc(-c2cc[n+]([O-])cc2)cc1)N1CCN(S(=O)(=O)c2cc3cc(Cl)ccc3[nH]2)CC1 [Example 1, 4-{4-[4(5-Chloroindol-2-ylsulfonyl)piperazine-1-carbonyl]phenyl}-pyridine-1-oxide]
melting point: 265 to 267 °C

N=C(N)c1ccc(CNC(=O)[C@@H]2CCN2C(=O)[C@H](NCC(=O)O)C2CCCCC2)cc1 [melagatran, HOOC—CH2—(R)Cgl-Aze-Pab-H]
IC50 (human plasma; from sigmoidal dose-response curves of PT0/PTinhibitor, human plasma, total concentration for the mixture, read-out: IC50 (concentration required to double the prothrombin time)): 740 nM
Prothrombin time (human plasma; plasma conc. 0.23 μmol/L): 18.1 s
Prothrombin time (human plasma; plasma conc. 0.47 μmol/L): 21.8 s
Prothrombin time (human plasma; plasma conc. 0.70 μmol/L): 25.4 s
Prothrombin time (human plasma; plasma conc. 0.93 μmol/L): 32.6 s
Prothrombin time (human plasma; plasma conc. 1.17 μmol/L): 43.2 s
Prothrombin time (human plasma; plasma conc. 1.40 μmol/L): 53.8 s
Prothrombin time (human plasma; plasma conc. 1.63 μmol/L): 65.3 s
Prothrombin time (human plasma; plasma conc. 1.86 μmol/L): 76.3 s
Prothrombin time (human plasma; plasma conc. 2.10 μmol/L): 87.2 s
PT (human plasma; single inhibitor at 2.33 μmol/L in human platelet poor plasma): 95.2 s
